The numbers were not newly measured in patent US7273870B2, “Stabilized difloxacin injectable solution” (Wyeth, priority 2002, dated 2007), which cites them from elsewhere.

With `CN1CCN(c2cc3c(cc2F)c(=O)c(C(=O)O)cn3-c2ccc(F)cc2)CC1` [Difloxacin, 6-fluoro-1-(4-fluorophenyl)-1,4-dihydro-7-(4-methyl-1-piperadinyl) 4-oxo-3-quinolinecarboxylic acid], the Solubility in water result is given as “not highly soluble in water”.
